Where two headings read alike, the source gives them in different places.
Key:
hGCGR = target: T1, hGCGR (Homo sapiens, UniProt P47871); test: Functional cAMP formation (HTRF) in HEK-293 clonal cells expressing hGCGR, 0.1% bovine casein, without or with 1.0% human serum albumin; format: cell-based; conditions: geometric mean, read-out: hGCGR EC50, nM (SEM, n)
T1 construct: expressed in transfected cells
Procedure, shortened: (§1)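 Cells were stimulated with peptide for 30 min at 37° C, then intracellular cAMP was measured by competitive HTRF (665/620 nm ratio) and converted to nM using a cAMP standard curve. Relative EC50 and Emax came from four-parameter logistic fits of percent maximal response against peptide concentration.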

[1] = target: T2, human GLP-1 receptor (hGLP-1R) (Homo sapiens, UniProt P43220); test: [125I]-GLP-1 binding, SPA with membranes of HEK293 cells expressing hGLP-1R; conditions: human GLP-1R; geometric mean (SEM, n); read-out: Binding Affinity Ki, nM (SEM, n) hGLP-1R
T2 construct: expressed in transfected cells; crude membranes
Procedure: Two methods are used for the preparation of crude cell membranes.
Method 1: Frozen cell pellets are lysed on ice in hypotonic buffer containing 50 mM Tris HCl, pH 7.5, and Roche Complete™ Protease Inhibitors with EDTA. […] The homogenate is centrifuged at 4° C. at 1100 × g for 10 minutes. The supernatant is collected and stored on ice while the pellets are resuspended in homogenization buffer and rehomogenized as described above. The homogenate is centrifuged at 1100 × g for 10 minutes. The second supernatant is combined with the first supernatant and centrifuged at 35000 × g for 1 hour at 4° C. The resulting membrane pellet is resuspended in homogenization buffer containing protease inhibitors at approximately 1 to 3 mg/mL, quick frozen in liquid nitrogen and stored as aliquots in a -80° C. freezer until use.
The homogenate is centrifuged at 4° C. at 1800 × g for 15 minutes. The supernatant is collected and stored on ice while the pellets are resuspended in homogenization buffer (without DNAse I) and rehomogenized as described above. The homogenate is centrifuged at 1800 × g for 15 minutes. The second supernatant is combined with the first supernatant and centrifuged an additional time at 1800 × g for 15 minutes. The overall supernatant is then centrifuged at 25000 × g for 30 minutes at 4° C. The resulting membrane pellet is resuspended in homogenization buffer (without DNAse I) containing protease inhibitors at approximately 1 to 3 mg/mL and stored as aliquots in a -80° C. freezer until use.
The human GLP-1 receptor binding assay is performed using an SPA format with WGA beads. The binding buffer contains 25 mM HEPES, pH 7.4, 2.5 mM CaCl2, 1 mM MgCl2, 0.1% (w/v) bacitracin, 0.003% (w/v) TWEEN®-20, and Roche Complete™ Protease Inhibitors without EDTA.
Raw CPM data for concentration curves of peptides, Gcg, GLP-1, or GIP are converted to percent inhibition by subtracting nonspecific binding (binding in the presence of excess unlabeled Gcg, GLP-1, or GIP, respectively) from the individual CPM values and dividing by the total binding signal, also corrected by subtracting nonspecific binding. Data are analyzed using four-parameter (curve maximum, curve minimum, IC50, Hill slope) nonlinear regression routines (Genedata Screener, version 12.0.4, Genedata AG, Basal, Switzerland). […] Values for Ki are reported as the geometric mean, with error expressed as the standard error of the mean (SEM) and n is equal to the number of independent replicates (determined in assays performed on different days). Geometric Means are calculated as follows: […]
The Ki Ratio (Ki for native control peptide/Ki for test compound) at each receptor and each species is calculated. The Ki Ratio is a rapid indication of the apparent affinity of a peptide compared to the native control peptide.
n=⅟x means that only one value out of the total number of replicates (x) is used to express the mean. SEM is only calculated when n=2 or greater non-qualified results exist. Means are expressed as GeoMetric means with the standard error of the mean (SEM) and the number of replicates (n) indicated in parenthesis.

hGIPR = target: T3, hGIPR (Homo sapiens, UniProt P48546); test: Functional cAMP formation (HTRF) in HEK-293 clonal cells expressing hGIPR, 0.1% bovine casein, without or with 1.0% human serum albumin; format: cell-based; conditions: for EC50: geometric mean, read-out: hGIPR EC50, nM (SEM, n); for Emax: read-out: hGIPR Emax, % ± SEM
T3 construct: expressed in transfected cells
T3 sequence (P48546 22-466): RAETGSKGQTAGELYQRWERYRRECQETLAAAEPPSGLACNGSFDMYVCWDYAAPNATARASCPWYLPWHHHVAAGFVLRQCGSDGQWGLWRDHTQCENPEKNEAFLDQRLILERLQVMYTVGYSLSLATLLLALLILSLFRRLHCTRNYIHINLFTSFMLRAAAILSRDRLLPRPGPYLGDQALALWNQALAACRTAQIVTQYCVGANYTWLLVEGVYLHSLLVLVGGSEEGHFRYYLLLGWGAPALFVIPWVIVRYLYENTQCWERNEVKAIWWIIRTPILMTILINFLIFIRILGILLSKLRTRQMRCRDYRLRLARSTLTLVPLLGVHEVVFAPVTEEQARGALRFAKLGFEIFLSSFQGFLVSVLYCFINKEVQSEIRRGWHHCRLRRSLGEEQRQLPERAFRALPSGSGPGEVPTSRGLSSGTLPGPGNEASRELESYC
Procedure, shortened: as §1

hGLP-1R = hGLP-1R (Homo sapiens, UniProt P43220); test: Functional cAMP formation (HTRF) in HEK-293 clonal cells expressing hGLP-1R, 0.1% bovine casein, without or with 1.0% human serum albumin; format: cell-based; set-up: expressed in transfected cells; conditions: for EC50: geometric mean, read-out: hGLP-1R EC50, nM (SEM, n); for Emax: read-out: hGLP-1R Emax, % ± SEM
Procedure, shortened: as §1

[2] = 0.1% bovine casein and 1.0% human serum albumin, 37° C.
[3] = cAMP, incubated at 37° C., 0.1% bovine casein (no human serum albumin)
[4] = HEK293, 0.1% bovine casein and 1.0% human serum albumin, 37° C., percent of maximal response to GIP(1-42)NH2
[5] = HEK293, percent of maximal response to GIP(1-42)NH2, 37° C., 0.1% bovine casein, arithmetic mean

T1 sequence (P47871 26-477): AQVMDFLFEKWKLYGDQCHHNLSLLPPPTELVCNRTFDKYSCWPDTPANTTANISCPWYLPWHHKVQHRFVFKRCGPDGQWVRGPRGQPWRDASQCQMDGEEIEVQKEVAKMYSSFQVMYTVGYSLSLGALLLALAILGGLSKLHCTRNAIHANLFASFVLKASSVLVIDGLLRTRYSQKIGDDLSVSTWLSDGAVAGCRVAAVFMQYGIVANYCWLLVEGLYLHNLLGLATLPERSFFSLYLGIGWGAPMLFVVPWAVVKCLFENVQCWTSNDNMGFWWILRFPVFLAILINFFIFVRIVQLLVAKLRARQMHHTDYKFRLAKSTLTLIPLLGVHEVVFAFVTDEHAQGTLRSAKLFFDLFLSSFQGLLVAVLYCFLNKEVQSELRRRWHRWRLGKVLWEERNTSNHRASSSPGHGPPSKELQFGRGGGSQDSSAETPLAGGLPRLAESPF
hGLP-1R, sequence (P43220 24-463): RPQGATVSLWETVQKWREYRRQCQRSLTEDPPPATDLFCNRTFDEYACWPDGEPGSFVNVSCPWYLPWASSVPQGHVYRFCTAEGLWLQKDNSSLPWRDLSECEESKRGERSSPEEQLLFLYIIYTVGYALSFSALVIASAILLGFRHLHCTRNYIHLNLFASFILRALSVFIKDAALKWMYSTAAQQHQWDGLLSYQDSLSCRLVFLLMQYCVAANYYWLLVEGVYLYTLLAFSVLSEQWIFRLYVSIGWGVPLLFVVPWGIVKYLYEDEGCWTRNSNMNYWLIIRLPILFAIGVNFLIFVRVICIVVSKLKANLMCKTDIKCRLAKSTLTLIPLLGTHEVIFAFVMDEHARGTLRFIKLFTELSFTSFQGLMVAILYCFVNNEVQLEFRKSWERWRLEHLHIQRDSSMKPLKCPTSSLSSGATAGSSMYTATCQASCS
T2 sequence (P43220 24-463): as above

CC[C@H](C)[C@H](NC(=O)[C@H](CC(C)C)NC(=O)[C@](C)(Cc1ccc(O)cc1)NC(=O)[C@@H](CCC(=O)O)NC(=O)[C@@H](NC(=O)[C@H](Cc1ccccc1)NC(=O)[C@H](CCC(=O)O)NC(=O)C(C)(C)NC(=O)[C@H](CCC(N)=O)NC(=O)[C@H](C)NC(=O)[C@H](CCCCNC(=O)COCCOCCNC(=O)COCCOCCNC(=O)[C@@H](N)CCCCNC(=O)CCCCCCCCCCCCC(=O)O)NC(=O)[C@H](CCCN)NC(=O)[C@H](CC(=O)O)NC(=O)[C@H](CC(C)C)NC(=O)[C@](C)(CC(C)C)NC(=O)[C@@H](NC(=O)[C@H](CO)NC(=O)[C@H](Cc1ccncc1)NC(=O)[C@H](CC(=O)O)NC(=O)[C@H](CO)NC(=O)[C@@H](NC(=O)[C@](C)(Cc1ccccc1F)NC(=O)[C@@H](NC(=O)CNC(=O)[C@H](CCC(=O)O)NC(=O)C(C)(C)NC(=O)[C@@H](N)Cc1ccc(O)cc1)[C@@H](C)O)[C@@H](C)O)[C@@H](C)CC)[C@@H](C)CC)C(=O)N[C@@H](CCC(=O)O)C(=O)NCC(=O)NCC(=O)N[C@@H](CCCCNC(=O)COCCOCCNC(=O)COCCOCCNC(=O)[C@@H](N)CCCCNC(=O)CCCCCCCCCCCCC(=O)O)C(=O)N[C@@H](CO)C(=O)N[C@@H](CO)C(=O)NCC(=O)N[C@@H](C)C(=O)N1CCC[C@H]1C(=O)N1CCC[C@H]1C(=O)N1CCC[C@H]1C(=O)N[C@@H](CO)C(N)=O [Example 33]
EC50 (hGCGR; [2]): > 9950 nM | EC50 (hGCGR; [3]): > 9950 nM | Ki [1]: 1.34 nM | EC50 (hGIPR; [2]): 0.0941 nM | Emax (hGIPR; [4]): 92 ± 1.02% | Emax (hGIPR; [5]): 97.6 ± 2.45% | EC50 (hGLP-1R; [2]): 4.35 nM

CC[C@H](C)[C@H](NC(=O)[C@H](CC(C)C)NC(=O)[C@](C)(Cc1ccc(O)cc1)NC(=O)[C@@H](CCC(=O)O)NC(=O)[C@@H](NC(=O)[C@H](Cc1ccccc1)NC(=O)[C@H](CCC(=O)O)NC(=O)C(C)(C)NC(=O)[C@H](CCC(N)=O)NC(=O)[C@H](C)NC(=O)[C@H](CCCCNC(=O)COCCOCCNC(=O)COCCOCCNC(=O)CC[C@H](NC(=O)CCCCCCCCCCCCC(=O)O)C(=O)O)NC(=O)[C@H](CCCN)NC(=O)[C@H](CC(=O)O)NC(=O)[C@H](CC(C)C)NC(=O)[C@](C)(CC(C)C)NC(=O)[C@@H](NC(=O)[C@](C)(CO)NC(=O)[C@H](Cc1ccc(O)cc1)NC(=O)[C@H](CC(=O)O)NC(=O)[C@H](CO)NC(=O)[C@@H](NC(=O)[C@](C)(Cc1ccccc1F)NC(=O)[C@@H](NC(=O)CNC(=O)[C@H](CCC(=O)O)NC(=O)C(C)(C)NC(=O)[C@@H](N)Cc1ccc(O)cc1)[C@@H](C)O)[C@@H](C)O)[C@@H](C)CC)[C@@H](C)CC)C(=O)N[C@@H](CCC(=O)O)C(=O)NCC(=O)NCC(=O)N[C@@H](CCCCNC(=O)COCCOCCNC(=O)COCCOCCNC(=O)CC[C@H](NC(=O)CCCCCCCCCCCCC(=O)O)C(=O)O)C(=O)N[C@@H](CO)C(=O)N[C@@H](CO)C(=O)NCC(=O)N[C@@H](C)C(=O)N1CCC[C@H]1C(=O)N1CCC[C@H]1C(=O)N1CCC[C@H]1C(=O)N[C@@H](CO)C(N)=O [Example 49]
EC50 (hGCGR; [2]): > 9950 nM | EC50 (hGCGR; [3]): > 9950 nM | Ki [1]: 1.21 nM | Emax (hGIPR; [4]): 92.4 ± 4.07% | Emax (hGIPR; [5]): 91 ± 1.7% | EC50 (hGIPR; [3]): 0.0205 nM | Emax (hGLP-1R; HEK293, percent of maximal response to GLP-1(7-36)NH2, 37° C., 0.1% bovine casein, arithmetic mean): 97.3 ± 5.46%

CC[C@H](C)[C@H](NC(=O)[C@H](CCCN)NC(=O)[C@H](CC(=O)O)NC(=O)[C@H](CC(C)C)NC(=O)[C@](C)(CC(C)C)NC(=O)[C@@H](NC(=O)[C@H](CO)NC(=O)[C@H](Cc1ccncc1)NC(=O)[C@H](CC(=O)O)NC(=O)[C@H](CO)NC(=O)[C@@H](NC(=O)[C@](C)(Cc1ccccc1F)NC(=O)[C@@H](NC(=O)CNC(=O)[C@H](CCC(=O)O)NC(=O)C(C)(C)NC(=O)[C@@H](N)Cc1ccc(O)cc1)[C@@H](C)O)[C@@H](C)O)[C@@H](C)CC)C(=O)N[C@@H](C)C(=O)N[C@@H](CCC(N)=O)C(=O)NC(C)(C)C(=O)N[C@@H](CCCCNC(=O)COCCOCCNC(=O)COCCOCCNC(=O)CC[C@H](NC(=O)CCCCCCCCCCCCC(=O)O)C(=O)O)C(=O)N[C@@H](Cc1ccccc1)C(=O)N[C@H](C(=O)N[C@H](CCC(=O)O)C(=O)N[C@@](C)(Cc1ccc(O)cc1)C(=O)N[C@@H](CC(C)C)C(=O)N[C@H](C(=O)N[C@@H](CCCCNC(=O)COCCOCCNC(=O)COCCOCCNC(=O)CC[C@H](NC(=O)CCCCCCCCCCCCC(=O)O)C(=O)O)C(=O)NCC(=O)NCC(=O)N1CCC[C@H]1C(=O)N[C@@H](CO)C(=O)N[C@@H](CO)C(=O)NCC(=O)N[C@@H](C)C(=O)N1CCC[C@H]1C(=O)N1CCC[C@H]1C(=O)N1CCC[C@H]1C(=O)N[C@@H](CO)C(N)=O)[C@@H](C)CC)[C@@H](C)CC [Example 73]
EC50 (hGCGR; [2]): > 9950 nM | EC50 (hGCGR; [3]): > 9950 nM | Ki [1]: 3.38 nM | EC50 (hGIPR; [2]): 2.16 nM | Emax (hGIPR; [4]): 80.2% | Emax (hGIPR; [5]): 97.1 ± 2.7% | EC50 (hGIPR; [3]): 0.0207 nM | EC50 (hGLP-1R; [2]): 56.2 nM | Emax (hGLP-1R; HEK293, 0.1% bovine casein and 1.0% human serum albumin, 37° C., percent of maximal response to GLP-1(7-36)NH2): 109% | EC50 (hGLP-1R; [3]): 0.437 nM

Source: US20230265151A1, “GIP/GLP1 CO-AGONIST COMPOUNDS” (priority 2020, published 2023)
